Values of other authors, collected in PMC11954708 (Clinical Pharmacokinetics, 2025).

Legend:
[1] = for Positive FE in vivo: Yes/No; for AUC ratio Observed: fed/fasted in vivo
[2] = total body clearance value

Q: With `Cc1cccc(Nc2ccccc2C(=O)O)c1C` [Mefenamic acid] as the compound, how does the “Positive FE in vivo” value [1] read?
A: The value was “No”.

Q: What about the “CYP3A4 or UGT substrate?” value (CYP3A4 or UGT) of the same compound?
A: Its value is “No”.

Q: What about the “CL (po)” value [2] of the same compound?
A: Its value is 21.23 (po) [51] l/h.

Q: With `COC(=O)[C@H](c1ccccc1Cl)N1CCc2sccc2C1` [Clopidogrel] as the compound, how does the “Positive FE in vivo” value [1] read?
A: Its value is “Yes”.

Q: What about the CL [2] of the same compound?
A: Its CL is 84 [52] l/h.

Q: What does the source list for `NC(=O)N1c2ccccc2C=Cc2ccccc21` [Carbamazepine]?
A: Positive FE in vivo [1]: Yes; AUC ratio Observed [1]: 1.12; CL [2]: 2.7 [50] l/h

Q: For `CCOC(=O)C1=C(C)NC(C)=C(C(=O)OC)C1c1cccc(Cl)c1Cl` (centres unmarked) [Felodipine], which “Positive FE in vivo” value [1] is on record?
A: The value was “No”.

Q: With `C[C@H]1O[C@@H](O[C@H]2[C@@H](O)C[C@H](O[C@H]3[C@@H](O)C[C@H](O[C@H]4CC[C@@]5(C)[C@H](CC[C@@H]6[C@@H]5C[C@@H](O)[C@]5(C)[C@@H](C7=CC(=O)OC7)CC[C@]65O)C4)O[C@@H]3C)O[C@@H]2C)C[C@H](O)[C@@H]1O` [Digoxin] as the compound, how does the “CYP3A4 or UGT substrate?” value (CYP3A4 or UGT) read?
A: Its value is “No”.

Q: What about the CL [2] of the same compound?
A: Its CL is 5.28 [51] l/h.

Q: For `O=C1Nc2ccc(Cl)cc2[C@@](C#CC2CC2)(C(F)(F)F)O1` [Efavirenz], which “Positive FE in vivo” value [1] is on record?
A: Its value is “Yes”.

Q: What about the “AUC ratio Observed” value [1] of the same compound?
A: The value was 1.28.

Q: What about the “CL (po)” value [2] of the same compound?
A: Its value is 9.4 (po) [51] l/h.
